Data taken from patent US10584156B2, “Insulin analogues with a glucose-regulated conformational switch” (CASE WESTERN RESERVE UNIVERSITY, priority 2015, dated 2020).

Assay: EDTA cobalt-sequestration assay of R6 insulin hexamer disassembly, with or without glucose
Assay type: physicochemical
Conditions: 25 mM glucose vs none, pH 7.4, large excess of EDTA, phenol-stabilized Co^2+ R6 hexamer
Description: Glucose-responsive rates of disassembly were investigated using a spectroscopy assay in which the visible absorption spectrum of a cobalt (Co^2+)-substituted insulin hexamer was obtained in the presence of phenol as an R6 hexamer.
This band arises front the unfilled d-shell electrons of the cobalt ion and is a specific signature of a tetrahedral coordination environment. Addition of a large excess of the chelating agent ethylene-diamine-tetra-acetic acid (EDTA) leads to progressive sequestration of the metal ion (in a colorless octahedral complex) and so provides a rapid and convenient probe of the kinetics of hexamer disassembly.
To this end, insulin analogues were made 0.6 mM in a buffer containing 50 mM Tris-HCl (pH 7.4), 50 mM phenol, 0.2 mM CoCl2, and 2 mM NaSCN in the absence of glucose or in the presence of 25 mM glucose. The sample pH was in each case 7.4, and samples were incubated overnight at room temperature prior to the studies to ensure that a conformational equilibrium was reached. Spectra (400-750 nm) were obtained to monitor tetrahedral Co^2+ coordination with its signature d-d absorption band at or near 574 nm. To determine the rate of Co^2+ release from the hexamers, metal-ion sequestration was initiated at 33° C. […] Attenuation of the 574-nm absorption band was monitored on a time scale of seconds to hours. […]

## wild-type human insulin: Human insulin, A chain SEQ ID NO: 2 and B chain SEQ ID NO: 3
  difference in rate of hexamer disassembly (loss of R-state-specific d-d band) in presence versus absence of glucose: No difference was observed
Listed as Wild-type insulin
  difference in rate of hexamer disassembly (loss of R-state-specific d-d band) in presence versus absence of glucose: the same rate of loss
